Source: patent publication US20100160351A1, “PHARMACEUTICAL COMPOSITIONS AND METHODS FOR TREATING HYPERURICEMIA AND RELATED DISORDERS” (NUON THERAPEUTICS, INC., priority 2008, published 2010)

Tested on: monosodium urate (MSU) crystal-induced air pouch inflammation
Test: Air Pouch Model 1: MSU crystal air pouch, rodent model of gout
Format: in vivo, male Sprague-Dawley rats
Conditions: for Average Exudate Volume / Average Plasma Extravasation, OD620 nm / Total WBC in Sample / WBC: +MSU, 4 h
Experimental: The objective of this study was to evaluate the anti-inflammatory affects of tranilast versus a clinically active treatment for gout, colchicine, as well as a clinically active non-steroidal antiinflammatory drug, indomethacin. This evaluation was carried out in male Sprague-Dawley rats in a rodent model of gout. The animals were injected subcutaneously with 20 ml of sterile air, followed three days later by a supplemental injection with 20 ml of sterile air. Six days after the initial sterile air injection, the rats were injected intravenously with Evan's Blue and pretreated for thirty minutes with either a subcutaneous injection of colchicine (1 mg/kg) or indomethacin (5 mg/kg) or oral administration with either 200 mg/kg or 400 mg/kg of tranilast. After the pretreatment period, the rats were injected with 150 mg of monosodium urate (MSU) crystals (10 mg·ml) into the air pouch. Four hours later, the air pouch was injected with 5 ml heparinized saline and the entire contents of the air pouch removed, recording the total volume. The air pouch contents were evaluated for plasma extravasation and total white blood cell (WBC) count.
(§1) On day 0 the rats were anesthetized in a biological cabinet, the nape of the neck was cleansed with 70% isopropanol followed by iodine tincture (VEDCO, lot L021976). Twenty ml sterile (0.22 μm, Fisher Scientific, Cat. 09-720-3, lot R5SN25683) air was injected subcutaneously using a 23 G×2 inch needle fixed to a 20 ml syringe. The rats were returned to routine housing. No adverse reactions were observed.
as §1, with “day 3” for “day 0”
On day 6 the rats were weighed (Mettler, Model PE3000, SN: F69474) and sorted into six treatment groups of ten animals each, based upon average weight. The animals were either dosed subcutaneously with 1 ml/kg colchicine or indomethacin, or orally with either 4 ml/kg or 8 ml/kg tranilast, or 8 ml/kg vehicle. Immediately after test material administration, the rats were intravenously injected with 2 ml/kg Evans Blue.
Thirty minutes after test material administration, the rats were anesthetized and five groups were injected into the air pouch with 15 ml MSU using an 18 G×1 inch needle fitted to a 20 ml syringe. The sixth group was injected with 15 ml saline. The rats were returned to their cages, no adverse affects were observed.
Four hours after MSU injection, the rats were anesthetized and 5 ml 10 U/ml heparinized saline was injected into the air pouch. The air pouch was gently massaged, the contents immediately removed using a 14 G×1 inch needle fitted to a 6 ml syringe, and the exudate volume recorded. An aliquot of the exudate was transferred to heparin-treated microtainer tubes (Becton Dickinson, Cat. 365958, lot 8093666, exp. June 09) for white blood cell (WBC) counting. The remainder of the exudate was centrifuged (Hermle Labrotechnik, Model Z200A, SN: 44060036), the supernatants removed and evaluated at OD620nm (Spectronic Unicam, Model 4000 1/4, SN: 3SGD003006) for plasma extravasation.

[1] = Group 4: tranilast 200 mg/kg oral
[2] = Group 5: tranilast 400 mg/kg oral
[3] = oral tranilast 30 min before MSU, regardless of dose (200 or 400 mg/kg)

With COc1ccc(/C=C/C(=O)Nc2ccccc2C(=O)O)cc1OC [Tranilast, 2-[[3-(3,4-dimethoxyphenyl)-1-oxo-2-propenyl]amino]benzoic acid] the “Average Exudate Volume” value [1] was 6.5 mL, the “Average Plasma Extravasation, OD620 nm” value [1] was 0.697 and the “Total WBC in Sample” value [1] was 15925556. The WBC [1] was 2524444 cells/ml, the “Average Exudate Volume” value [2] was 5.3 mL and the “Average Plasma Extravasation, OD620 nm” value [2] was 0.626. The “Total WBC in Sample” value [2] was 15162222, the WBC [2] was 3144444 cells/ml and the “inhibition of plasma extravasation” value [3] was 60%. The “inhibition of white blood cell infiltration” value [3] was 95%.
